Measured values taken from US20240041042A1, “1-(PYRIDYL)-5-AZINYLPYRAZOLE DERIVATIVES, AND THEIR USE FOR CONTROL OF UNDESIRED PLANT GROWTH” (Bayer Aktiengesellschaft, priority 2020, published 2024).
Read-outs that look alike come from different tables or passages of the source.

What was measured:
Type in all cases: in vivo
[1] = system: Alopecurus myosuroides (ALOMY); assay: Pre-emergence herbicidal action against ALOMY; details: scored visually after about 3 weeks, 100% = plants have died
Text: (§1) Seeds of monocotyledonous and dicotyledonous weed plants and crop plants are placed in plastic or organic planting pots and covered with soil. The compounds of the invention, formulated in the form of wettable powders (WP) or as emulsion concentrates (EC), are then applied to the surface of the covering soil as aqueous suspension or emulsion with addition of 0.5% additive at a water application rate equivalent to 600 l/ha. After the treatment, the pots are placed in a greenhouse and kept under good growth conditions for the trial plants. After about 3 weeks, the effect of the preparations is scored visually in comparison with untreated controls as percentages. For example, 100% activity=the plants have died, 0% activity=like control plants.
(§2) Tables A1 to A13 below show the effects of selected compounds of the general formula (I) on various harmful plants and at an application rate corresponding to 320 g/ha or lower, which were obtained by the experimental procedure mentioned above. The appendices “a”, “b” and “c” give differentiation by dosage used with otherwise the same harmful plants tested.

[2] = system: Amaranthus retroflexus (AMARE); assay: Pre-emergence herbicidal action against AMARE; details: visual scoring after about 3 weeks vs untreated controls
Text: as §1, §2

Avena fatua (AVEFA) [3] = assay: Pre-emergence herbicidal action against AVEFA; details: visual scoring after about 3 weeks vs untreated controls
Text: as §1, §2

[4] = system: Echinochloa crus-galli (ECHCG); assay: Pre-emergence herbicidal action against ECHCG; details: dosage 320 g/ha
Text: as §1, §2

Lolium rigidum (LOLRI) [5] = assay: Pre-emergence herbicidal action against LOLRI
Text: as §1, §2

[6] = system: Matricaria inodora (MATIN); assay: Pre-emergence herbicidal action against MATIN
Text: as §1, §2

[7] = system: Polygonum convolvulus (POLCO); assay: Pre-emergence herbicidal action against POLCO
Text: as §1, §2

Setaria viridis (SETVI) [8] = assay: Pre-emergence herbicidal action against SETVI
Text: as §1, §2

[9] = system: Verconica persica (VERPE); assay: Pre-emergence herbicidal action against VERPE
Text: as §1, §2

Viola tricolor (VIOTR) [10] = assay: Pre-emergence herbicidal action against VIOTR
Text: as §1, §2

[11] = system: Abutilon theophrasti (ABUTH); assay: Post-emergence herbicidal action against ABUTH; details: 320 g/ha, visual rating about 3 weeks after treatment vs untreated controls (100% = plants have died, 0% = like control plants)
Procedure: (§3) Seeds of monocotyledonous and dicotyledonous weeds and crop plants are placed in sandy loam in plastic or organic planting pots, covered with soil and cultivated in a greenhouse under controlled growth conditions. 2 to 3 weeks after sowing, the test plants are treated at the one-leaf stage. The compounds of the invention, formulated in the form of wettable powders (WP) or as emulsion concentrates (EC), are then sprayed onto the green parts of the plants as aqueous suspension or emulsion with addition of 0.5% additive at a water application rate of 600 l/ha (converted). After the test plants have been kept in the greenhouse under optimum growth conditions for about 3 weeks, the activity of the preparations is rated visually in comparison to untreated controls. For example, 100% activity=the plants have died, 0% activity=like control plants.
(§4) Tables B1 to B13 below show the effects of selected compounds of the general formula (I) according to Table 1 on various harmful plants and at an application rate corresponding to 320 g/ha or lower, which were obtained by the experimental procedure mentioned above. The appendices “a”, “b” and “c” give differentiation by dosage used with otherwise the same harmful plants tested.

[12] = system: Alopecurus myosuroides (ALOMY); assay: Post-emergence herbicidal action against ALOMY; details: visual rating about 3 weeks after treatment vs untreated controls (100% = plants have died, 0% = like control plants)
Procedure: as §3, §4

[13] = system: Amaranthus retroflexus (AMARE); assay: Post-emergence herbicidal action against AMARE; details: 320 g/ha, visual rating about 3 weeks after treatment
Procedure: as §3, §4

Avena fatua (AVEFA) [14] = assay: Post-emergence herbicidal action against AVEFA; details: visual rating about 3 weeks after treatment
Procedure: as §3, §4

[15] = system: Echinochloa crus-galli (ECHCG); assay: Post-emergence herbicidal action against ECHCG
Procedure: as §3, §4

Lolium rigidum (LOLRI) [16] = assay: Post-emergence herbicidal action against LOLRI
Procedure: as §3, §4

[17] = system: Pharbitis purpurea (PHBPU); assay: Post-emergence herbicidal action against PHBPU
Procedure: as §3, §4

[18] = system: Polygonum convolvulus (POLCO); assay: Post-emergence herbicidal action against POLCO; details: dosage 320 g/ha
Procedure: as §3, §4

Setaria viridis (SETVI) [19] = assay: Post-emergence herbicidal action against SETVI; details: dosage 320 g/ha
Procedure: as §3, §4

[20] = system: Verconica persica (VERPE); assay: Post-emergence herbicidal action against VERPE
Procedure: as §3, §4

Viola tricolor (VIOTR) [21] = assay: Post-emergence herbicidal action against VIOTR; details: 320 g/ha
Procedure: as §3, §4

Oryza sativa (ORYSA) = details: crop plant compatibility
Procedure: as §3
(§5) The observed effects on selected crop plants are reported here in comparison to the untreated controls (values in %). The appendices “a”, “b” and “c” give differentiation by dosage used with otherwise the same crop plants tested.

Zea mays (ZEAMX) = system: Zea mays (ZEAMX)
Procedure: as §3, §5

[22] = 80 g/ha, effect in comparison to untreated controls

| SMILES | Pre-emergence action against ALOMY ([1]; 80 g/ha) [%] | Pre-emergence action against ALOMY ([1]; 320 g/ha) [%] | Pre-emergence action against AMARE in % ([2]; 80 g/ha) [%] | Pre-emergence action against AMARE in % ([2]; 320 g/ha) [%] | Pre-emergence action against AVEFA in % (Avena fatua (AVEFA) [3]; 80 g/ha) [%] | Pre-emergence action against AVEFA in % (Avena fatua (AVEFA) [3]; 320 g/ha) [%] | Pre-emergence action against ECHCG in % [4] [%] | Pre-emergence action against LOLRI in % (Lolium rigidum (LOLRI) [5]; dosage 80 g/ha) [%] | Pre-emergence action against LOLRI in % (Lolium rigidum (LOLRI) [5]; dosage 320 g/ha) [%] | Pre-emergence action against MATIN in % ([6]; dosage 320 g/ha) [%] | Pre-emergence action against POLCO in % ([7]; dosage 80 g/ha) [%] | Pre-emergence action against POLCO in % ([7]; dosage 320 g/ha) [%] | Pre-emergence action against SETVI in % (Setaria viridis (SETVI) [8]; dosage 320 g/ha) [%] | Pre-emergence action against VERPE in % ([9]; dosage 320 g/ha) [%] | Pre-emergence action against VIOTR in % (Viola tricolor (VIOTR) [10]; 320 g/ha, Viola tricolor) [%] | Pre-emergence action against VIOTR in % (Viola tricolor (VIOTR) [10]; dosage 80 g/ha) [%] | Post-emergence action against ALOMY in % ([12]; 80 g/ha) [%] | Post-emergence action against AVEFA in % (Avena fatua (AVEFA) [14]; 80 g/ha) [%] | Post-emergence action against PHBPU in % ([17]; dosage 80 g/ha) [%] | Post-emergence action against ORYSA in % (Oryza sativa (ORYSA); [22]) [%] | also measured |
| --- | --- | --- | --- | --- | --- | --- | --- | --- | --- | --- | --- | --- | --- | --- | --- | --- | --- | --- | --- | --- | --- |
| C[C@@H](Oc1nn(-c2nc(F)ccc2F)c(-c2ccc(F)nc2)c1Br)C(=O)O [Example I-333] | 90 | 100 | 90 | 100 | 80 | 90 | 90 | 80 | 100 | 90 | 90 | 90 | 90 | 100 | 100 | 100 | 90 | 80 | 80 | 20 | Pre-emergence action against MATIN in % ([6]; dosage 80 g/ha): 80%; Post-emergence action against ABUTH in % [11]: 80%; Post-emergence action against ALOMY in % ([12]; 320 g/ha): 90%; Post-emergence action against AMARE in % [13]: 80%; Post-emergence action against AVEFA in % (Avena fatua (AVEFA) [14]; 320 g/ha): 90%; Post-emergence action against ECHCG in % ([15]; dosage 80 g/ha): 80%; Post-emergence action against ECHCG in % ([15]; dosage 320 g/ha): 90%; Post-emergence action against LOLRI in % (Lolium rigidum (LOLRI) [16]; dosage 320 g/ha): 90%; Post-emergence action against PHBPU in % ([17]; dosage 320 g/ha): 90%; Post-emergence action against POLCO in % [18]: 80%; Post-emergence action against SETVI in % (Setaria viridis (SETVI) [19]): 80%; Post-emergence action against VERPE in % ([20]; 320 g/ha, VERPE): 90%; Post-emergence action against VIOTR in % (Viola tricolor (VIOTR) [21]): 80% |
| COCCOCCOC(=O)[C@@H](C)Oc1nn(-c2ncccc2F)c(-c2ccc(F)nc2)c1Br [Example I-34] | 90 | 100 | 100 | 100 | 80 | 90 | 100 | 90 | 100 | 90 | 80 | 90 | 100 | 100 | 100 | 100 | 90 | 90 | 80 | 20 | Pre-emergence action against SETVI in % (Setaria viridis (SETVI) [8]; dosage 80 g/ha): 90%; Pre-emergence action against VERPE in % ([9]; dosage 80 g/ha): 90%; Post-emergence action against LOLRI in % (Lolium rigidum (LOLRI) [16]; dosage 80 g/ha): 80%; Post-emergence action against VERPE in % ([20]; dosage 80 g/ha): 90%; Post-emergence action against ORYSA in % (Oryza sativa (ORYSA); 20 g/ha, effect vs untreated controls): 10%; Post-emergence action against ZEAMX in % (crop plant compatibility) (Zea mays (ZEAMX); 20 g/ha, ZEAMX, effect in comparison to untreated controls): 10%; Post-emergence action against ZEAMX in % (Zea mays (ZEAMX); crop plant compatibility, 80 g/ha, effect vs untreated controls): 10% |
